Source: ChEMBL document CHEMBL1201862, “PubChem BioAssay data set” (2004)
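A five-concentration, 48-hour dose response in 96-well plates underlies each endpoint, interpolated linearly between surrounding concentrations. Abbreviation: GI50, concentration required for 50% inhibition of growth.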 The source made the active and inactive calls. Rule as the data show it: active = GI50 up to about 1.1 µM and inactive = higher.

Key:
Experiment in all cases: NCI-60 cell line screen, 48 h
[1] = system: SK-MEL-5
[2] = system: SK-MEL-2
[3] = system: SK-OV-3
[4] = system: EKVX
[5] = system: HT-29
[6] = system: NCI/ADR-RES
[7] = system: SK-MEL-28
[8] = system: ACHN
[9] = system: NCI-H460
[10] = system: MDA-N
[11] = system: OVCAR-4
[12] = system: MDA-MB-435
[13] = system: A498
[14] = system: SN12C
[15] = system: HCT-116
[16] = system: DMS-273
[17] = system: LXFL 529
[18] = system: DLD-1
[19] = system: DMS-114

Structure (SMILES)	GI50 [1]	GI50 [2]	GI50 [3]	GI50 [4]	GI50 [5]	GI50 [6]	GI50 [7]	GI50 [8]	GI50 [9]	GI50 [10]	GI50 [11]	GI50 [12]	GI50 [13]	GI50 [14]	GI50 [15]	GI50 [16]	GI50 [17]	GI50 [18]	GI50 [19]
O=C(O)CCC1(c2ccccc2)NC(=O)NC1=O (stereo not given)	> 100 µM (inactive)	> 100 µM (inactive)	> 100 µM (inactive)	> 100 µM (inactive)	> 100 µM (inactive)	> 100 µM (inactive)	> 100 µM (inactive)	> 100 µM (inactive)	> 100 µM (inactive)	> 100 µM (inactive)	> 100 µM (inactive)	> 100 µM (inactive)	> 100 µM (inactive)	> 100 µM (inactive)	> 100 µM (inactive)	–	–	–	–
COC(=N)c1ncn(Cc2ccccc2)c1N	> 100 µM (inactive)	> 100 µM (inactive)	> 100 µM (inactive)	> 100 µM (inactive)	> 100 µM (inactive)	> 100 µM (inactive)	> 100 µM (inactive)	> 100 µM (inactive)	> 100 µM (inactive)	> 100 µM (inactive)	> 100 µM (inactive)	> 100 µM (inactive)	> 100 µM (inactive)	> 100 µM (inactive)	> 100 µM (inactive)	–	–	–	–
COc1ccc2c(c1)C(OC)C1c3c(cc4c(c3-2)OCO4)CCN1C (stereo not given)	2.43 µM (inactive)	2.73 µM (inactive)	4.5 µM (inactive)	4.34 µM (inactive)	2.21 µM (inactive)	1.87 µM (inactive)	3.88 µM (inactive)	1.82 µM (inactive)	2.82 µM (inactive)	2.86 µM (inactive)	2.32 µM (inactive)	3.34 µM (inactive)	1.82 µM (inactive)	2.64 µM (inactive)	2.1 µM (inactive)	–	–	–	–
COc1ccc(N2C(=O)C3ON(C(C(N)=O)c4ccccc4)C(c4cc5ccccc5c5ccccc45)C3C2=O)cc1 (stereo not given)	19.7 µM (inactive)	18.3 µM (inactive)	> 50 µM (inactive)	24.5 µM (inactive)	18 µM (inactive)	> 50 µM (inactive)	> 50 µM (inactive)	> 50 µM (inactive)	> 50 µM (inactive)	11.8 µM (inactive)	25.9 µM (inactive)	18.4 µM (inactive)	> 50 µM (inactive)	14 µM (inactive)	18.2 µM (inactive)	–	–	–	–
COC1(OC)CCC2(C)OC(c3ccccc3)C1O2 (stereo not given)	–	> 100 µM (inactive)	> 100 µM (inactive)	> 100 µM (inactive)	> 100 µM (inactive)	–	> 100 µM (inactive)	> 100 µM (inactive)	> 100 µM (inactive)	–	> 100 µM (inactive)	–	–	> 100 µM (inactive)	> 100 µM (inactive)	> 100 µM (inactive)	> 100 µM (inactive)	> 100 µM (inactive)	> 100 µM (inactive)
COc1ccc(-c2nc3ccccc3c(=S)n2OC(C)=O)cc1	2.93 µM (inactive)	> 25 µM (inactive)	5.71 µM (inactive)	6.46 µM (inactive)	2.55 µM (inactive)	2.54 µM (inactive)	6.5 µM (inactive)	2.99 µM (inactive)	1.05 µM (active)	12 µM (inactive)	8.32 µM (inactive)	7.1 µM (inactive)	23.9 µM (inactive)	8.07 µM (inactive)	1.91 µM (inactive)	–	–	–	–
Nc1cc2c(c3ccccc13)C(CCl)CN2C(=O)c1cc2cc(NC(=O)c3cc4ccccc4o3)ccc2[nH]1 (stereo not given)	0.000787 µM (active)	0.00286 µM (active)	0.11 µM (active)	0.11 µM (active)	0.00144 µM (active)	0.00136 µM (active)	0.0123 µM (active)	0.000492 µM (active)	0.000308 µM (active)	0.00817 µM (active)	0.00209 µM (active)	0.0055 µM (active)	0.00184 µM (active)	0.00345 µM (active)	0.00254 µM (active)	–	–	–	–
c1c(N2CCOCC2)s[s+]c1N1CCOCC1	> 100 µM (inactive)	7.06 µM (inactive)	> 100 µM (inactive)	> 100 µM (inactive)	> 100 µM (inactive)	–	> 100 µM (inactive)	> 100 µM (inactive)	> 100 µM (inactive)	–	> 100 µM (inactive)	–	> 100 µM (inactive)	> 100 µM (inactive)	> 100 µM (inactive)	> 100 µM (inactive)	> 100 µM (inactive)	> 100 µM (inactive)	> 100 µM (inactive)
C=C(Cl)C(Cl)(CBr)CCC(Cl)C(C)C (stereo not given)	17.7 µM (inactive)	0.619 µM (active)	26.4 µM (inactive)	14.7 µM (inactive)	0.222 µM (active)	8.55 µM (inactive)	1.87 µM (inactive)	2.92 µM (inactive)	1.98 µM (inactive)	3.72 µM (inactive)	8.17 µM (inactive)	6.98 µM (inactive)	5.21 µM (inactive)	13.2 µM (inactive)	1.37 µM (inactive)	–	–	–	–
